Counter-ions that a name gives are not always drawn.
Assays:
hCA II = molecular target: T1, hCA II (Homo sapiens, UniProt P00918); test: stopped-flow CA inhibition assay; type: biochemical
T1 construct: gene CA2; cytosolic isoform
Source text: stopped-flow CA inhibition assay on hCA II

hCA I = molecular target: T2, hCA I (Homo sapiens, UniProt P00915); test: stopped-flow CA inhibition assay; type: biochemical
T2 construct: gene CA1; cytosolic isoform
Source text: stopped-flow CA inhibition assay on hCA I

T2 sequence (P00915 2-261): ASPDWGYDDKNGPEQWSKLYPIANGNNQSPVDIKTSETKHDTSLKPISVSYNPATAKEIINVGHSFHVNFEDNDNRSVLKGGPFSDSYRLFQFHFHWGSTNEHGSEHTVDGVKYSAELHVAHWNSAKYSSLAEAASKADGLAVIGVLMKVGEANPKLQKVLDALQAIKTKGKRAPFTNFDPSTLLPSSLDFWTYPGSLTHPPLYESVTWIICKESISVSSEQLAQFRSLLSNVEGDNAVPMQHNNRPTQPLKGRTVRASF

## N=C(N)NC(=N)Nc1ccc(S(N)(=O)=O)cc1 [compound 2, 4-(3-Carbamimidoylguanidino)benzenesulfonamide hydrochloride salt]
hCA II
  Ki: 135 nM
hCA I
  Ki: 361 nM

## N=C(N)NC(=N)Nc1cccc(S(N)(=O)=O)c1 [compound 4, 3-(3-Carbamimidoylguanidino)benzenesulfonamide hydrochloride salt]
hCA II
  Ki: 265 nM
hCA I
  Ki: 707 nM

— publication PMC10179589, “Membrane Permeability Is Required for the Vasodilatory Effect of Carbonic Anhydrase Inhibitors in Porcine Retinal Arteries” (International Journal of Molecular Sciences, 2023)
